Laboratory results as given in PMC9166630, “SAR Probing of KX2-391 Provided Analogues With Juxtaposed Activity Profile Against Major Oncogenic Kinases” (Frontiers in Oncology, 2022).

Molecular target: T1, EphA3 (Homo sapiens, UniProt P29320)
T1 construct: endogenous in cells; host or cells: HL60 lysate
T1 sequence (P29320 21-983): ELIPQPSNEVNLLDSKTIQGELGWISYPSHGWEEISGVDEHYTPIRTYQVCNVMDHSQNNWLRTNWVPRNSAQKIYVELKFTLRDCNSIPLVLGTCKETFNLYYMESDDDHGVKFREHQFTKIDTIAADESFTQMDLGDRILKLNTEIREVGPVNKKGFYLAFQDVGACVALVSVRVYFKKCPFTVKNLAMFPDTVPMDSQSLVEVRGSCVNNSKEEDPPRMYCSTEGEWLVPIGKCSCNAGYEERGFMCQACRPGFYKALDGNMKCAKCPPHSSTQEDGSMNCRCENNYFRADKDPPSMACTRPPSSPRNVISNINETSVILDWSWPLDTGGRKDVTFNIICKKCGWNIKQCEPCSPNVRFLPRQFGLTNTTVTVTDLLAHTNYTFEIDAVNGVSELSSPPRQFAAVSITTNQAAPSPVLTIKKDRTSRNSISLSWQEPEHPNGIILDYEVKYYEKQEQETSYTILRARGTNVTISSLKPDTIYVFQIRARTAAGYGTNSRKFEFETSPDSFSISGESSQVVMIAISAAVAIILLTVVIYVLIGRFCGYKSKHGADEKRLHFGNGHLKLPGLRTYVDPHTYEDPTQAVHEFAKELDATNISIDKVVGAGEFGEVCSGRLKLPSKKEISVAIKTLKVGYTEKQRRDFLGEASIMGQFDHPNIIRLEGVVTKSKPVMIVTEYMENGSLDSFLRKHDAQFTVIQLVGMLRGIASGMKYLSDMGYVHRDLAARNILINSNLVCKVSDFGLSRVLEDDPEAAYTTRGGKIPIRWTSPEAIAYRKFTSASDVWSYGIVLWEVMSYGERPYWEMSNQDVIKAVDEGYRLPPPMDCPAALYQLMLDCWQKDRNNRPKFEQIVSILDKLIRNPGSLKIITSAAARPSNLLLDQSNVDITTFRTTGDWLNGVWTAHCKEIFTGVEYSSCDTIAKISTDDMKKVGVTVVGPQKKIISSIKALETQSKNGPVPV
Assay: PamChip tyrosine kinase microarray, EphA3
Assay type: biochemical
Conditions: 4e 0.1 µM, HL60 lysate
Method: The changes in kinase activities induced by treatment with 4e were monitored within the HL60 cell lines using PamGene’s (Hertogenbosch, Netherlands) PamChip® peptide microarray profiler, which quantifies the activities of 144 tyrosine kinases (YK) ([29], [30]) (Figure 7). Results are provided as a log fold change (LFC) heatmap and Mean Kinase Statistic. From the LFC it is apparent that compound 4e, at a concentration of 0.1 µM, induced sizable changes to the activity of several kinases within the cell signaling YK profile (Figure 7A).
An Upstream Kinase tool was used to generate a putative list of kinases responsible for phosphorylating the phospho-sites on the PamChip (Figure 7B) ([31]). It is an interpretation and is highly dependent on the contents of the underlying phosphorylation databases. A Kinase Score was used for ranking kinases based on their significance and specificity in terms of the set of peptides used for the corresponding kinase. Kinase Statistics indicates the overall change of the peptide set that represents the kinase. Kinase statistics value <0 indicates lower kinase activity in the compound spiked lysate and vice versa ([32], [33]). Table 5 lists the 20 most changed kinases within treated HL60 cell lysates by 0.1 μM 4e, ranked according to their Kinase Score.
The compound 4e was spiked into HL60 cell lysate at different concentrations (0.001, 0.01, 0.1, 1, 10 and 50 μM). In addition, DMSO was also spiked in HL60 lysate at low concentration (2% v/v) as control. Samples were profiled on PamGene’s Tyrosine Kinase (PTK) arrays in technical replicates, covering a total of 196 phosphorylation sites. Frozen HL60 cultured cell pellet was sent to PamGene. At PamGene, cells were lysed using a lysis buffer and proteases inhibitors cocktail. Protein concentration was measured using standard Bradford assay as per PamGene SOPs. These lysates were further used for generating the PTK activity profiles. For spiking, 4e was received as powder form and dissolved in DMSO at PamGene facility followed by storing at -20°C in small aliquots. PamGene used its in-house bioinformatics toolbox in combination with other methods to generate hypotheses of signaling pathways.

SMILES: O=C(Cc1ccc(NC(=O)c2cccc(Cl)c2)cc1)NCc1ccccc1 [Compound 4e, N-(4-(2-(benzylamino)-2-oxoethyl)phenyl)-3-chlorobenzamide]
- Mean Final Score: 1.9564
- Mean Kinase Statistic: -0.6074
- Mean Significance Score: 1.4547
- Mean Specificity Score: 0.5017
